Patent US9486422B2, “Small molecule inhibitors of Mcl-1 and the uses of thereof” (THE REGENTS OF THE UNIVERSITY OF MICHIGAN, priority 2011, dated 2016)
Read-outs that look alike come from different tables or passages of the source. Each block holds one compound with its values, some of them ahead of it.

Experiments:
Mcl-1 [1] = target: T1, Mcl-1 (Homo sapiens, UniProt Q07820); conditions: cited from earlier work
Target sequence in this assay (Q07820 whole entry): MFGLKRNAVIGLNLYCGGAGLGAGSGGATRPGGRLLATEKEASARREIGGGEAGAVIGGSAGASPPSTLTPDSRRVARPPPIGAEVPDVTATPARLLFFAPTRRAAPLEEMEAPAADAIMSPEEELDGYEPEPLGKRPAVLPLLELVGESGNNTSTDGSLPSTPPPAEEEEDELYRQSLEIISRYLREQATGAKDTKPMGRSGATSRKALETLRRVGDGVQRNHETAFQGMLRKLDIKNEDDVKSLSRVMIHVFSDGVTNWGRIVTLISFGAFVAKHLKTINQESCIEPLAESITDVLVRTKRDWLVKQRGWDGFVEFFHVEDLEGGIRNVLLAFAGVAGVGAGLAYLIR

[2] = target: T2, cellular Mcl-1 protein (2LMP cell lysate) (Homo sapiens, UniProt Q07820); assay: Biotin-streptavidin pull-down with biotin-labeled Noxa BH3 peptide; format: binding
T2 construct: endogenous in cells; host or cells: 2LMP (subclone of MDA-MB-231) cell lysate
Experimental: Human breast cancer 2LMP cells, a subclone of the MDA-MB-231 cell line, were lysed in CHAPS buffer (10 mM HEPES (pH 7.4), 2.5 mM EDTA, 150 mM NaCl, 1.0% CHAP). Pre-cleared cell lysates were incubated with different concentrations of tested compounds, followed by incubation with biotinylated Noxa BH3 peptide (residues 18-43) and streptavidin-agarose beads to pull-down Mcl-1 protein bound to Noxa peptide. Beads were washed with CHAPS buffer, and Mcl-1 protein was eluted by boiling in SDS-PAGE sample buffer and analyzed by Western blotting using Mcl-1 antibody (Santa Cruz). DMSO alone was used as a control for nonspecific pull-down.

A1/Bfl-1 = target: T3, A1/Bfl-1 (Homo sapiens, UniProt Q16548); assay: FP-based binding assay, A1/Bfl-1; conditions: for Ki: read-out: A1/Bfl-1 Ki ± SD
T3 sequence (Q16548 1-151): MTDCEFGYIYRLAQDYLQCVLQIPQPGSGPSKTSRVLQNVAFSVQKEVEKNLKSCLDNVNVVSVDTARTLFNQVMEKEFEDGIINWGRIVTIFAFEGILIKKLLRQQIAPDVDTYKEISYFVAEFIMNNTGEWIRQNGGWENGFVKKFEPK

Bcl-w = target: T4, Bcl-w (Homo sapiens, UniProt Q92843); assay: FP-based binding assay, Bcl-w; conditions: for Ki: competitive FP, FAM-BID 2 nM, protein 40 nM, read-out: Bcl-w Ki ± SD
T4 sequence (Q92843 1-155): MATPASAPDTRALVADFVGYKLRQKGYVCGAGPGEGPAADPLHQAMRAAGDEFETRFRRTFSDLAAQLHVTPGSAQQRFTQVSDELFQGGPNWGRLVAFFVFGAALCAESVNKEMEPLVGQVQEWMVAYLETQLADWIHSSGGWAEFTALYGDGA

Bcl-xL = Bcl-xL (Homo sapiens, UniProt Q07817, DEL45-85); assay: FP-based binding assay, Bcl-xL; conditions: read-out: Bcl-xL Ki ± SD
Mcl-1 [3] = target: T1, Mcl-1; assay: FP-based binding assay, Mcl-1; conditions: for IC50: Flu-BID 2 nM, Mcl-1 90 nM, read-out: Mcl-1 IC50 ± SD; for Ki: read-out: Mcl-1 Ki ± SD; for binding to Mcl-1, result in words: FP assay
Target sequence in this assay (Q07820 171-327): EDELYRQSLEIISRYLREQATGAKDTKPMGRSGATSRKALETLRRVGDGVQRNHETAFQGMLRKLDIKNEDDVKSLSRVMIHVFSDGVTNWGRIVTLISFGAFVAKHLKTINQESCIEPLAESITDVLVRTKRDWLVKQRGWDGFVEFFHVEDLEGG

Bcl-2 = target: T5, Bcl-2 (Homo sapiens, UniProt P10415); assay: FP-based binding assay, Bcl-2; conditions: competitive FP, Flu-BID 2 nM, protein 60 nM; read-out: Bcl-2 Ki ± SD
T5 construct: His-tagged proteins containing; fused on or other part: A 16-residue segment of the flexible loop of Bcl-xL (BCL2L1, Q07817; given as residues 35 to 50) set into the Bcl-2 loop region; His tag with TEV site from the pHis-TEV vector

[4] = competitive FP, FAM-BID 1 nM, protein 4 nM
[5] = competitive FP, FAM-BID 2 nM, protein 50 nM
[6] = competitive FP, Ki calculated from IC50

Chain of Bcl-xL (Q07817 other isoform, or with tags, fused parts or gaps DEL45-85): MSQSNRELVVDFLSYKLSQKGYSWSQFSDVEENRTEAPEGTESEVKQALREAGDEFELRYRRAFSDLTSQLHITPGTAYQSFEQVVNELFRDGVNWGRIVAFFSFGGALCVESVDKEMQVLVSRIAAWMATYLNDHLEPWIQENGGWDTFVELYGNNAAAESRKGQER
T5 sequence (P10415 with tags, fused parts or gaps with the stated changes): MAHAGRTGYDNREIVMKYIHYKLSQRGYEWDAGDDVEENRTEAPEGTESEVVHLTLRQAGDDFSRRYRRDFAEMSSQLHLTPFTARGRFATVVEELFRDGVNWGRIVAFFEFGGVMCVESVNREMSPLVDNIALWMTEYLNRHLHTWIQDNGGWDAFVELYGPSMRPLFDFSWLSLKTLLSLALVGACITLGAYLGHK
T2 sequence (Q07820 whole entry): as the sequence (Q07820 whole entry) above

Compound: CN(C)CC[C@H](CSc1ccccc1)Nc1ccc(S(=O)(=O)NC(=O)c2ccc(N3CCN(Cc4ccccc4-c4ccc(Cl)cc4)CC3)cc2)cc1[N+](=O)[O-] [ABT-737]
binding to Mcl-1, result in words (Mcl-1 [1]): fails to bind to Mcl-1

Compound: O=C(O)CSc1cc(NS(=O)(=O)c2cccs2)c2ccccc2c1O [Compound 1, 2-((1-Hydroxy-4-(thiophene-2-sulfonamido)naphthalen-2-yl)thio)acetic acid]
disruption of BL-Noxa/cellular Mcl-1 interaction, result in words [2]: effectively disrupted
Ki (A1/Bfl-1; [4]): 6.14 ± 1 µM
Ki (Bcl-w): 37.5 ± 7.96 µM

Compound: O=C(O)CSc1cc(NS(=O)(=O)c2ccc(-c3ccccc3)cc2)c2ccccc2c1O [Compound 14, 2-((4-([1,1′-Biphenyl]-4-ylsulfonamido)-1-hydroxynaphthalen-2-yl)thio)acetic acid]
Ki (A1/Bfl-1): 2.34 ± 0.37 µM
Ki (Bcl-w): 1.92 ± 0.37 µM
Ki (Bcl-xL): 8.05 ± 0.5 µM
fold improved binding to Mcl-1 compared to 2 (Mcl-1 [3]): 9 fold
IC50 (Mcl-1 [3]; competitive FP): 1.4 ± 0.36 µM
Ki (Mcl-1 [3]): 0.37 ± 0.1 µM

Compound: O=C(O)CSc1cc(NS(=O)(=O)c2cccc(-c3ccccc3)c2)c2ccccc2c1O [Compound 15, 2-((4-([1,1′-Biphenyl]-3-ylsulfonamido)-1-hydroxynaphthalen-2-yl)thio)acetic acid]
Ki (A1/Bfl-1): 3.18 ± 0.41 µM
Ki (Bcl-w): 2.19 ± 0.45 µM
Ki (Bcl-xL): 15.1 ± 1.11 µM
fold improved binding to Mcl-1 compared to 2 (Mcl-1 [3]): 9 fold
IC50 (Mcl-1 [3]; competitive FP): 1.41 ± 0.17 µM
Ki (Mcl-1 [3]): 0.38 ± 0.03 µM

Compound: O=C(O)CSc1cc(NS(=O)(=O)c2ccccc2-c2ccccc2)c2ccccc2c1O [Compound 16, 2-((4-([1,1′-Biphenyl]-2-ylsulfonamido)-1-hydroxynaphthalen-2-yl)thio)acetic acid]
Ki (A1/Bfl-1): 17.3 ± 0.56 µM
Ki (Bcl-w): 4.41 ± 0.39 µM
Ki (Bcl-xL): 48.1 ± 3.28 µM
fold improved binding to Mcl-1 compared to 2 (Mcl-1 [3]): 2 fold
IC50 (Mcl-1 [3]; competitive FP): 7.47 ± 1.47 µM
Ki (Mcl-1 [3]): 2.03 ± 0.41 µM

Compound: O=C(O)CSc1cc(NS(=O)(=O)c2ccc(Oc3ccccc3)cc2)c2ccccc2c1O [Compound 18, 2-((1-Hydroxy-4-(4-phenoxyphenylsulfonamido)naphthalen-2-yl)thio)acetic acid]
Ki (A1/Bfl-1; [4]): 3.36 ± 0.56 µM
Ki (Bcl-w): 1.58 ± 0.35 µM
Ki (Bcl-xL; [5]): 10.6 ± 1.53 µM

Ki (A1/Bfl-1; [4]): > 140 µM
Ki (Bcl-2): > 200 µM
Ki (Bcl-w): > 90 µM
Ki (Bcl-xL; [5]): > 130 µM
IC50 (Mcl-1 [3]; competitive FP): > 800 µM
Ki (Mcl-1 [3]; [6]): > 200 µM
Compound: O=C(O)CSc1cc(NS(=O)(=O)c2ccc(Br)cc2)ccc1O [Compound 22, 2-((5-(4-Bromophenylsulfonamido)-2-hydroxyphenyl)thio)acetic acid]

binding to Mcl-1, result in words (Mcl-1 [3]): abolished binding
IC50 (Mcl-1 [3]; competitive FP): > 100 µM
Ki (Mcl-1 [3]; [6]): > 25 µM
Compound: O=S(=O)(Nc1ccc(O)c2ccccc12)c1ccccc1 [Compound 27, N-(4-Hydroxynaphthalen-1-yl)benzenesulfonamide]

Compound: COC(=O)CSc1cc(NS(=O)(=O)c2ccc(Br)cc2)c2ccccc2c1O [Compound 29, Methyl 2-((4-(4-bromophenylsulfonamido)-1-hydroxynaphthalen-2-yl)thio)acetate]
Ki (A1/Bfl-1; [4]): > 140 µM
Ki (Bcl-2): 23.8 ± 5.08 µM
Ki (Bcl-w): > 90 µM
Ki (Bcl-xL; [5]): > 130 µM
IC50 (Mcl-1 [3]; competitive FP): 18.6 ± 4.93 µM
Ki (Mcl-1 [3]; [6]): 5.08 ± 1.35 µM

Compound: CCCCSc1cc(NS(=O)(=O)c2ccc(Br)cc2)c2ccccc2c1O [Compound 30, 4-Bromo-N-(3-(butylthio)-4-hydroxynaphthalen-1-yl)benzenesulfonamide]
binding to Mcl-1, result in words (Mcl-1 [3]): abolished the binding to Mcl-1 protein
IC50 (Mcl-1 [3]; competitive FP): > 100 µM
Ki (Mcl-1 [3]; [6]): > 25 µM

Compound: O=S(=O)(Nc1cc(CCCCO)c(O)c2ccccc12)c1ccc(Br)cc1 [Compound 32, 4-Bromo-N-(4-hydroxy-3-(4-hydroxybutyl)naphthalen-1-yl)benzenesulfonamide]
fold decreased binding to Mcl-1 compared to 9 (UMI-77) (Mcl-1 [3]): 4 fold
IC50 (Mcl-1 [3]; competitive FP): 8.01 ± 3.31 µM
Ki (Mcl-1 [3]): 2.18 ± 0.91 µM

Compound: NC(=O)CSc1cc(NS(=O)(=O)c2ccc(Br)cc2)c2ccccc2c1O [Compound 33, 2-((4-(4-Bromophenylsulfonamido)-1-hydroxynaphthalen-2-yl)thio)acetamide]
IC50 (Mcl-1 [3]; competitive FP): 6.27 ± 1.28 µM
Ki (Mcl-1 [3]): 1.71 ± 0.35 µM

Compound: O=C(O)CCSc1cc(NS(=O)(=O)c2ccc3ccccc3c2)c2ccccc2c1O [Compound 34, 3-((1-Hydroxy-4-(naphthalene-2-sulfonamido)naphthalen-2-yl)thio)propanoic acid]
IC50 (Mcl-1 [3]; competitive FP): 4.2 ± 1.25 µM
Ki (Mcl-1 [3]; [6]): 1.13 ± 0.34 µM

IC50 (Mcl-1 [3]; competitive FP): > 50 µM
Ki (Mcl-1 [3]; [6]): > 12.5 µM
Compound: O=C(O)CCSc1cc(NS(=O)(=O)c2cccc3ccccc23)c2ccccc2c1O [Compound 35]

IC50 (Mcl-1 [3]; competitive FP): > 800 µM
Ki (Mcl-1 [3]; [6]): > 200 µM
Compound: COC(=O)CSc1cc(NS(=O)(=O)c2ccc(Br)cc2)c2ccccc2c1OC [Compound 40d, Methyl 2-((4-(4-bromophenylsulfonamido)-1-methoxynaphthalen-2-yl)thio)acetate]

IC50 (Mcl-1 [3]; competitive FP): > 800 µM
Ki (Mcl-1 [3]; [6]): > 200 µM
Compound: CCCCSc1cc(NS(=O)(=O)c2ccc(Br)cc2)c2ccccc2c1OC [Compound 40p, 4-Bromo-N-(3-(butylthio)-4-methoxynaphthalen-1-yl)benzenesulfonamide]

Compound: CC[C@H](C)[C@H](NC(=O)[C@H](CC(N)=O)NC(=O)[C@H](CCCNC(=N)N)NC(=O)[C@@H](NC(=O)[C@@H](NC(=O)[C@H](CC(=O)O)NC(=O)[C@H](CCC(=O)O)NC(=O)c1ccc2c(c1)C(=O)OC21c2ccc(O)cc2Oc2cc(O)ccc21)[C@@H](C)CC)[C@@H](C)CC)C(=O)N[C@@H](C)C(=O)N[C@@H](CCCNC(=N)N)C(=O)N[C@@H](Cc1c[nH]cn1)C(=O)N[C@@H](CC(C)C)C(=O)N[C@@H](C)C(=O)N[C@@H](CCC(N)=O)C(=O)N[C@H](C(=O)NCC(=O)N[C@@H](CC(=O)O)C(=O)N[C@@H](CO)C(=O)N[C@@H](CCSC)C(=O)N[C@@H](CC(=O)O)C(=O)N[C@@H](CCCNC(=N)N)C(=O)O)C(C)C [FAM-BID, reference compound]
Kd (A1/Bfl-1; saturation experiments, tracer 2 nM, read-out: Kd of fluorescent probe to A1/Bfl-1): 0.00083 ± 6e-05 µM
Kd (Bcl-w; saturation experiments, tracer 2 nM, read-out: Kd of fluorescent probe to Bcl-w): 0.0055 ± 0.0016 µM
